In patent US20150305333A1, “USE OF GLUCOSAMINE AMIDES AS PLANT GROWTH AND YIELD ENHANCERS” (PIONEER HI-BRED INTERNATIONAL, INC., priority 2012, published 2015):

Test system: spring wheat (Triticum aestivum)
Test: Spring wheat field trial 2011: emergence, vigor, tillering, biomass, yield
Type: in vivo
Conditions: for Spring Wheat Crop Vigor (1-5 scale): vigor scale of Example 3; for Spring Wheat Biomass: 82 DAP, aerial portion
Method: A field trial was conducted to evaluate the effects of NPG on plant emergence, vigor, tillering, biomass and yield in spring wheat (Triticum aestivum) planted near Breslau, Ontario, Canada, in 2011. Seed treatments included an Untreated Control, 10^−7 M NPG applied as a seed treatment, 10^−7 M NPG followed by two foliar NPG applications, 10^−6 M natural LCO, and 10^−6 M commercial LCO plus a commercial rhizobia inoculant (LCO+RI). The natural LCO was provided by Dr. Don Smith (McGill University, Montreal, Canada) and prepared as described in Example 2. Seed coating was performed by injecting 7 mL of aqueous NPG solution per 100 g wheat seed into a coating machine followed by treatment and drying. […] Seed designated for use as the Untreated Check also received the fungicide maintenance treatment.
Treated seeds were sent to the DuPont Breslau, Ontario Research Station and planted on June 8th in a loam composed of 34% sand, 48% silt and 18% clay and 2.9% organic matter. […] Spring wheat was planted at a rate of 100 kg seeds/ha to a depth of 3 cm. Weeds were controlled using 8.79 wt % fenoxyprop-P-ethyl at a rate of 770 mL/ha and a mixture of 33.33 wt % thifensulfuron methyl and 16.67 wt % tribenuron methyl at a rate of 30 g/ha. Disease was controlled using 23.6 wt % pyraclostrobin fungicide at a rate of 0.4 L/ha. All of the products used are considered industry standards and representative of what is used in commercial production.
The trial was conducted using a randomized complete block design with a plot size of 2.5 m by 8 m with 17.8 cm row spacing, 3.3 cm plant spacing and four replications.
Foliar NPG applications were performed 36 and 49 days after planting. The treatments were sprayed using a 4 nozzle hollow-cone boom and CO2 propellant at a speed of 4.5 km/h and 40 psi. The 36 day application utilized a mix size of 2.0 L and spray rate of 200 L/ha water volume. The 49 day application utilized a mix size of 3.0 L and spray rate of 300 L/ha water volume.
Plant Biomass was determined at 82 DAP by harvesting the entire aerial portion of the plants from each plot (Table 17). A non-statistically significant increase in biomass was determined for the NPG, LCO+RI, and LCO treatments compared to the Untreated Control.
Yield was determined by harvesting the entire 8 m of the plot and transforming the data to kg/ha (Table 18). Yields are not corrected for differences in emergence rates.

[1] = 10^−7M seed treatment + Foliar, 35 DAP

## CCCCCCC=CCCCCCCCC(=O)NC1C(OC)OC(CO)C(O)C1O [NPG, Methyl 2-deoxy-2-N-(hexadece-9,10-cis-eneoyl)-β-D-glucopyranoside]
10^−7M seed treatment
  Spring Wheat Yield: 1100a kg/ha
  Spring Wheat Biomass: 0.190a kg/plant
10^−7M seed treatment + Foliar
  Spring Wheat Yield: 1188a kg/ha
  Spring Wheat Biomass: 0.198a kg/plant
10^−7M seed treatment + Foliar, 13 DAP
  Wheat Crop Emergence: 53a %
[1]
  Spring Wheat Tillering: 8.0a tillers/plant
  Wheat Crop Emergence: 100a %
  Spring Wheat Crop Vigor (1-5 scale): 3.6a
10^−7M seed treatment + Foliar, 40 DAP
  Spring Wheat Crop Vigor (1-5 scale): 3.5b
10^−7M seed treatment + Foliar, 52 DAP
  Spring Wheat Crop Vigor (1-5 scale): 3.5a
10^−7M seed treatment, 13 DAP
  Wheat Crop Emergence: 53a %
10^−7M seed treatment, 35 DAP
  Spring Wheat Tillering: 9.0a tillers/plant
  Wheat Crop Emergence: 100a %
  Spring Wheat Crop Vigor (1-5 scale): 3.4a
10^−7M seed treatment, 40 DAP
  Spring Wheat Crop Vigor (1-5 scale): 3.5b
10^−7M seed treatment, 52 DAP
  Spring Wheat Crop Vigor (1-5 scale): 3.4a
